Patent US20250122183A1 (Pfizer Inc., priority 2023, published 2025)

Legend:
[1] = target: KAT7+JADE1+EAF6+ING5 4 protein complex (Homo sapiens (Human), UniProt O95251); test: KAT7 JADE1 assay (SAMDI-MS acetylation of H3 1-21 peptide); format: biochemical; conditions: Morrison equation fit; replicate number in parentheses; read-out: KAT7 JADE1 Ki (nM) (replicate number)
KAT6A Full length enzyme = KAT6A Full length enzyme (Homo sapiens (Human), UniProt Q92794); test: KAT6A assay (SAMDI-MS acetylation of H3 1-21 peptide); format: biochemical; conditions: Morrison equation fit; replicate number in parentheses; read-out: KAT6A Ki (nM) (replicate number)
KAT6A Full length enzyme, sequence (Q92794 other isoform, or with tags, fused parts or gaps): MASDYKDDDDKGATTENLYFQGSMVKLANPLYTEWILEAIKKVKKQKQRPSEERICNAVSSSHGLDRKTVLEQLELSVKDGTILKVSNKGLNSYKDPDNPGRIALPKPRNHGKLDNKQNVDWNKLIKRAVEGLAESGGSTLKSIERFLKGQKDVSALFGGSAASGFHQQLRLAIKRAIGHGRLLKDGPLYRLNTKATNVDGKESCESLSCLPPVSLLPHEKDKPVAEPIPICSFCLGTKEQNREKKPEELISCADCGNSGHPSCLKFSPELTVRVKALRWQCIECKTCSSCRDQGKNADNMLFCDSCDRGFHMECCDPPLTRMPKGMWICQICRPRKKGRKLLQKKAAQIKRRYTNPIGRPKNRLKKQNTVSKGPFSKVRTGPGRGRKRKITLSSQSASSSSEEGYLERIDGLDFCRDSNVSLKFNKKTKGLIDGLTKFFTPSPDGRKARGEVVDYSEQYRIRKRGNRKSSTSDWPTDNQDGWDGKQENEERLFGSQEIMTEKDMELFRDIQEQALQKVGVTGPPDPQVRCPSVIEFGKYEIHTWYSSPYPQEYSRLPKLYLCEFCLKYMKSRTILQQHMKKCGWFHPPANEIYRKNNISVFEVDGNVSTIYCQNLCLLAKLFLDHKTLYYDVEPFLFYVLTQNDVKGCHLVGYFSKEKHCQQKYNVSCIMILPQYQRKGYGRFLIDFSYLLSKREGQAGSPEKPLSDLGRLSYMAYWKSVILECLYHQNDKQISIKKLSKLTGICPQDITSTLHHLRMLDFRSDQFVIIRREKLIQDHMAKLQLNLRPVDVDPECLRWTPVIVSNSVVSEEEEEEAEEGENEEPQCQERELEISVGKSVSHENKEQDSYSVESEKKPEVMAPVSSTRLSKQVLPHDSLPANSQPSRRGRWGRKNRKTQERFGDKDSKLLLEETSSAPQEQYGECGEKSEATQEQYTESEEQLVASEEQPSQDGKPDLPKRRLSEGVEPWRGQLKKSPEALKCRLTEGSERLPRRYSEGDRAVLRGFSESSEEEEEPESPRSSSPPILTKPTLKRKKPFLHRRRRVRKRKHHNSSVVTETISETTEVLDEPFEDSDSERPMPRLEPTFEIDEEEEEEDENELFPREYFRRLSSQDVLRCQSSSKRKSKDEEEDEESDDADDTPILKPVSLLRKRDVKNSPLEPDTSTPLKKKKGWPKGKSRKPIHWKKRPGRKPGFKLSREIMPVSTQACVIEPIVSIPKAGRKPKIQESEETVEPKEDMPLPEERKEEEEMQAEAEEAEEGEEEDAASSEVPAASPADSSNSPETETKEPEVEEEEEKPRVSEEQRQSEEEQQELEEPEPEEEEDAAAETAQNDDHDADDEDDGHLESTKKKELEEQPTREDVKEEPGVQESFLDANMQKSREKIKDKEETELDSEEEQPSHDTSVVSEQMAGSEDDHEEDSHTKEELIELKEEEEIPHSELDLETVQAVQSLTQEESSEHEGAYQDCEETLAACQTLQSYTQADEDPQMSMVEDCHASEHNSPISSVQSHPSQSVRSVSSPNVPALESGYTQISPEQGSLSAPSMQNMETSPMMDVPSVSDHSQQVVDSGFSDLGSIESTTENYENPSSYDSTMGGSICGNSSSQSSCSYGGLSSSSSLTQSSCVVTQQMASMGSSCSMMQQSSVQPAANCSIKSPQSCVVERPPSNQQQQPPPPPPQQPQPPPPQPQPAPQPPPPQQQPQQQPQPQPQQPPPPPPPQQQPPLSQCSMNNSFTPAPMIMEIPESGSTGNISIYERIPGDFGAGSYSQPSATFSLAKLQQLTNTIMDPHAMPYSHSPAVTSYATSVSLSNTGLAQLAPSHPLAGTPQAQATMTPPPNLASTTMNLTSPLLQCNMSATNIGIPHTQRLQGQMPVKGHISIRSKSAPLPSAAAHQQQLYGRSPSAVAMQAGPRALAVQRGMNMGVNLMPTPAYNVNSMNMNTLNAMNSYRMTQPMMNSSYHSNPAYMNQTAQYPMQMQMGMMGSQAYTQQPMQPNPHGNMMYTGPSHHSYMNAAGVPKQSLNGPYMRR

Compound | Ki [1] [nM] | Ki (KAT6A Full length enzyme) [nM]
COc1cc2c(NS(=O)(=O)c3c(OC)cccc3OC)noc2cc1Nc1[nH]nc(C)c1C#N [Example 45, N-{6-[(4-cyano-3-methyl-1H-pyrazol-5-yl)amino]-5-methoxy-1,2-benzoxazol-3-yl}-2,6-dimethoxybenzene-1-sulfonamide] | 804 | 2.3
COc1cc2c(NS(=O)(=O)c3c(OC)cccc3OC)noc2cc1Nc1[nH]nc2c1CNC2 [Example 49, 2,6-dimethoxy-N-{5-methoxy-6-[(2,4,5,6-tetrahydropyrrolo[3,4-c]pyrazol-3-yl)amino]-1,2-benzoxazol-3-yl}benzene-1-sulfonamide] | > 2340 | 4
COc1cc2c(NS(=O)(=O)c3c(OC)cccc3OC)noc2cc1Nc1cc(C(C)C)nn1C [Example 51, 2,6-dimethoxy-N-(5-methoxy-6-{[1-methyl-3-(propan-2-yl)-1H-pyrazol-5-yl]amino}-1,2-benzoxazol-3-yl)benzene-1-sulfonamide] | > 4990 | > 377
COc1cc2c(NS(=O)(=O)c3c(OC)cccc3OC)noc2cc1Nc1cc(C)nn1C(C)C [Example 52, 2,6-dimethoxy-N-(5-methoxy-6-{[3-methyl-1-(propan-2-yl)-1H-pyrazol-5-yl]amino}-1,2-benzoxazol-3-yl)benzene-1-sulfonamide] | > 12500 | 73.5
COc1cc2c(NS(=O)(=O)c3c(OC)cccc3OC)noc2cc1Nc1ccn(C(C)C)n1 [Example 53, 2,6-dimethoxy-N-(5-methoxy-6-{[1-(propan-2-yl)-1H-pyrazol-3-yl]amino}-1,2-benzoxazol-3-yl)benzene-1-sulfonamide] | 441 | 19.8
COc1cc2c(NS(=O)(=O)c3c(OC)cccc3OC)noc2cc1Nc1cc(C(=O)O)n[nH]1 [Example 54, 5-({3-[(2,6-dimethoxybenzene-1-sulfonyl)amino]-5-methoxy-1,2-benzoxazol-6-yl}amino)-1H-pyrazole-3-carboxylic acid] | > 2340 | 2
COc1cc2c(NS(=O)(=O)c3c(OC)cccc3OC)noc2cc1Nc1[nH]nc(C)c1C(N)=O [Example 57, 5-({3-[(2,6-dimethoxybenzene-1-sulfonyl)amino]-5-methoxy-1,2-benzoxazol-6-yl}amino)-3-methyl-1H-pyrazole-4-carboxamide] | > 2340 | 6.2
COc1cc2c(NS(=O)(=O)c3c(OC)cccc3OC)noc2cc1Nc1c(C(N)=O)c(C)nn1C [Example 58, 5-({3-[(2,6-dimethoxybenzene-1-sulfonyl)amino]-5-methoxy-1,2-benzoxazol-6-yl}amino)-1,3-dimethyl-1H-pyrazole-4-carboxamide] | > 12500 | 5.7
COCc1cc(Nc2cc3onc(NS(=O)(=O)c4c(OC)cccc4OC)c3cc2OC)n(C)n1 [Example 60, 2,6-dimethoxy-N-(5-methoxy-6-{[3-(methoxymethyl)-1-methyl-1H-pyrazol-5-yl]amino}-1,2-benzoxazol-3-yl)benzene-1-sulfonamide] | > 12500 | > 377
COc1cc2c(NS(=O)(=O)c3c(OC)cccc3OC)noc2cc1Nc1nc[nH]n1 [Example 61, 2,6-dimethoxy-N-{5-methoxy-6-[(1H-1,2,4-triazol-3-yl)amino]-1,2-benzoxazol-3-yl}benzene-1-sulfonamide] | 54.7 | 0.2
COCc1cc(Nc2cc3onc(NS(=O)(=O)c4c(OC)cccc4OC)c3cc2OC)[nH]n1 [Example 91, 2,6-dimethoxy-N-(5-methoxy-6-{[3-(methoxymethyl)-1H-pyrazol-5-yl]amino}-1,2-benzoxazol-3-yl)benzene-1-sulfonamide] | 802 | 2.3
COc1cc2c(NS(=O)(=O)c3c(OC)cccc3OC)noc2cc1Nc1cc(C(F)(F)F)n[nH]1 [Example 93, 2,6-dimethoxy-N-(5-methoxy-6-{[3-(trifluoromethyl)-1H-pyrazol-5-yl]amino}-1,2-benzoxazol-3-yl)benzene-1-sulfonamide] | 729 | 31.2
CCOc1cc(C)c(F)cc1S(=O)(=O)Nc1noc2cc(Nc3n[nH]cc3F)c(OC)cc12 [Example 139, 2-Ethoxy-5-fluoro-N-{6-[(4-fluoro-1 H-pyrazol-3-yl)amino]-5-methoxy-1,2-benzoxazol-3-yl}-4-methylbenzene-1-sulfonamide] | 128 | 0.1
COc1cc2c(NS(=O)(=O)c3c(OC)cc(C4CN(C)CCC4(F)F)cc3OC)noc2cc1Nc1cc(C2CC2)[nH]n1 (centres unmarked) [Example 177, N-{6-[(5-cyclopropyl-1 H-pyrazol-3-yl)amino]-5-methoxy-1,2-benzoxazol-3-yl}-4-[4,4-difluoro-1-(^2H3)methylpiperidin-3-yl]-2,6-dimethoxybenzene-1-sulfonamide] | 0.2 | 0.1
COc1cc2c(NS(=O)(=O)c3c(OC)cc(C4C[C@H](F)CN4C)cc3OC)noc2cc1Nc1cc(C2CC2)n[nH]1 (stereo partly drawn) [Example 181, N-{6-[(3-cyclopropyl-1 H-pyrazol-5-yl)amino]-5-methoxy-1,2-benzoxazol-3-yl}-4-[(4S)-4-fluoro-1-methylpyrrolidin-2-yl]-2,6-dimethoxybenzene-1-sulfonamide] | 6.2 | 2
COc1cc2c(NS(=O)(=O)c3c(OC)cc(C4C[C@H](C)CN4C)cc3OC)noc2cc1Nc1cc(C2CC2)n[nH]1 (stereo partly drawn) [Example 182, N-{6-[(3-cyclopropyl-1H-pyrazol-5-yl)amino]-5-methoxy-1,2-benzoxazol-3-yl}-4-[(4S)-1,4-dimethylpyrrolidin-2-yl]-2,6-dimethoxybenzene-1-sulfonamide] | 6.4 | 0.8
COc1cc2c(NS(=O)(=O)c3c(OC)cc([C@@H]4CCCN4C)cc3OC)noc2cc1Nc1cc(C2CC2)n[nH]1 [Example 189] | 20.8 | 3.7
COc1cc2c(NS(=O)(=O)c3c(OC)cc(C4CC(F)CCN4C)cc3OC)noc2cc1Nc1cc(C2CC2)[nH]n1 (stereo not drawn) [Example 192, N-{6-[(5-cyclopropyl-1 H-pyrazol-3-yl)amino]-5-methoxy-1,2-benzoxazol-3-yl}-4-trans(4-fluoro-1-methylpiperidin-2-yl)-2,6-dimethoxybenzene-1-sulfonamide] | 22.2 | 2.4
COc1cc2c(NS(=O)(=O)c3c(OC)cc(C4CC(F)CCN4C)cc3OC)noc2cc1Nc1cc(C2CC2)[nH]n1 (stereo not drawn) [Example 193, N-{6-[(5-cyclopropyl-1 H-pyrazol-3-yl)amino]-5-methoxy-1,2-benzoxazol-3-yl}-4-trans(4-fluoro-1-methylpiperidin-2-yl)-2,6-dimethoxybenzene-1-sulfonamide] | 12 | 1.4
COc1cc2c(NS(=O)(=O)c3c(OC)cc(CN4CCC(OC)CC4)cc3OC)noc2cc1Nc1cc(C2CC2)n[nH]1 [Example 194, N-{6-[(3-cyclopropyl-1 H-pyrazol-5-yl)amino]-5-methoxy-1,2-benzoxazol-3-yl}-2,6-dimethoxy-4-[(4-methoxypiperidin-1-yl)methyl]benzene-1-sulfonamide] | 6.3 | 1.7
COc1cc2c(NS(=O)(=O)c3c(OC)cc(CN4CCC[C@H](C)C4)cc3OC)noc2cc1Nc1cc(C2CC2)n[nH]1 [Example 195, N-{6-[(3-cyclopropyl-1H-pyrazol-5-yl)amino]-5-methoxy-1,2-benzoxazol-3-yl}-2,6-dimethoxy-4-{[(3S)-3-methylpiperidin-1-yl]methyl}benzene-1-sulfonamide] | 18.9 | 2.5
COc1cc2c(NS(=O)(=O)c3c(OC)cc(CN4CCC(F)(F)C4)cc3OC)noc2cc1Nc1cc(C2CC2)n[nH]1 [Example 196, N-{6-[(3-cyclopropyl-1H-pyrazol-5-yl)amino]-5-methoxy-1,2-benzoxazol-3-yl}-4-[(3,3-difluoropyrrolidin-1-yl)methyl]-2,6-dimethoxybenzene-1-sulfonamide] | 4 | 0.9
COc1cc2c(NS(=O)(=O)c3c(OC)cc(CN4CCCC(F)(F)C4)cc3OC)noc2cc1Nc1cc(C2CC2)n[nH]1 [Example 199, N-{6-[(3-cyclopropyl-1H-pyrazol-5-yl)amino]-5-methoxy-1,2-benzoxazol-3-yl}-4-[(3,3-difluoropiperidin-1-yl)methyl]-2,6-dimethoxybenzene-1-sulfonamide] | 5.2 | 0.7
COc1cc2c(NS(=O)(=O)c3c(OC)cc(CN4CC(C)C4)cc3OC)noc2cc1Nc1cc(C2CC2)n[nH]1 [Example 200, N-{6-[(3-cyclopropyl-1 H-pyrazol-5-yl)amino]-5-methoxy-1,2-benzoxazol-3-yl}-2,6-dimethoxy-4-[(3-methylazetidin-1-yl)methyl]benzene-1-sulfonamide] | 17.2 | 2.1
COc1cc2c(NS(=O)(=O)c3c(OC)cc(CN4CC[C@@H](C(F)F)C4)cc3OC)noc2cc1Nc1cc(C2CC2)n[nH]1 [Example 204] | 4.9 | 1.1
COc1cc2c(NS(=O)(=O)c3c(OC)cc(CN4CCC(C(F)(F)F)C4)cc3OC)noc2cc1Nc1cc(C2CC2)n[nH]1 (centres unmarked) [Example 205, N-{6-[(3-cyclopropyl-1H-pyrazol-5-yl)amino]-5-methoxy-1,2-benzoxazol-3-yl}-2,6-dimethoxy-4-{[3-(trifluoromethyl)pyrrolidin-1-yl]methyl}benzene-1-sulfonamide] | 6 | 1.4
COc1cc2c(NS(=O)(=O)c3c(OC)cc(CN4CCCC4(C)C)cc3OC)noc2cc1Nc1cc(C2CC2)n[nH]1 [Example 206, N-{6-[(3-cyclopropyl-1H-pyrazol-5-yl)amino]-5-methoxy-1,2-benzoxazol-3-yl}-4-[(2,2-dimethylpyrrolidin-1-yl)methyl]-2,6-dimethoxybenzene-1-sulfonamide] | 28.8 | 4.4
COc1cc2c(NS(=O)(=O)c3c(OC)cc(-c4nccc(N(C)C)n4)cc3OC)noc2cc1Nc1cc(C2CC2)n[nH]1 [Example 216, N-{6-[(3-cyclopropyl-1H-pyrazol-5-yl)amino]-5-methoxy-1,2-benzoxazol-3-yl}-4-[4-(dimethylamino)pyrimidin-2-yl]-2,6-dimethoxybenzene-1-sulfonamide] | 1.6 | 0.2
